Experimental findings from patent publication US11787847B2, “Method of identifying malodor modulating compounds” (FIRMENICH SA, priority 2017, dated 2023) are described below.

As usually defined, the EC50 is the midpoint of the concentration-response curve.

What all share (experiment): cell-based dose-response, Ca2+ increase (Calcium 5 dye, FLIPR), HEK293T line stably expressing FLAG-Rho tagged receptor with human Gα15
One assay deals with T1, human receptor OR8H3 (Homo sapiens, UniProt Q8N146).
T1 construct: The receptors were tagged with a FLAG®-Rho tag combination; expressed in transfected cells
T1 sequence (Q8N146 1-312): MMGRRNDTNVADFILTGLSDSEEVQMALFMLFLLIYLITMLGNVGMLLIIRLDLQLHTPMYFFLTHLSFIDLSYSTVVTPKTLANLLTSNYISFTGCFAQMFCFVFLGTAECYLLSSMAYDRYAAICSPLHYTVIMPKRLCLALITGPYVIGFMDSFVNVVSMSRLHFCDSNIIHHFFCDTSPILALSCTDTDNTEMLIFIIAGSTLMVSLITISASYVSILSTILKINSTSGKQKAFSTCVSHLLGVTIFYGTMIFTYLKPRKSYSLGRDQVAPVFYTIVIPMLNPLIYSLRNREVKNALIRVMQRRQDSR
The following applies: FIG. 3, Example 3, SEQ ID NO: 34, stable HEK293T. How it is done: (§1) Functional dose-response experiments were performed to evaluate the level of DMTS activity of the modified cell lines expressing individual putative DMTS receptors. A cell line stably expressing a human receptor was generated in a HEK293T cell line for each of the following human receptors: OR2L13, OR4C15, OR5AC2, OR8H3, OR11G2 or OR52N2. The receptors were tagged with a FLAG®-Rho tag combination and stably co-expressed with the human G-protein alpha subunit Gals for the cell based assay. Co-expression of the human Gals activates the Gq transduction pathway that leads to an internal Ca^2+ increase upon binding to the appropriate ligand. Receptors were exposed to increasing concentrations of DMTS. Odorant-induced activity was detected by measuring the Ca^2+ increase in the cytosol using a calcium sensitive fluorescent dye (Molecular Devices, Calcium 5 dye, cat. R8186) and measuring the change in Relative Fluorescence Ratio (RFU) using a fluorometric imaging plate reader (Molecular Devices, FLIPR) following odorant exposure. […] A cell line lacking a receptor was used as a control for non-specific activity at high compound concentrations (‘No receptor’). The activity levels are reported by the potency of the DMTS induced-response for each receptor as a measure of the EC50 value.

A further assay deals with T2, human receptor OR5AC2 (Homo sapiens, UniProt Q9NZP5).
T2 construct: The receptors were tagged with a FLAG®-Rho tag combination; expressed in transfected cells
T2 sequence (Q9NZP5 1-309): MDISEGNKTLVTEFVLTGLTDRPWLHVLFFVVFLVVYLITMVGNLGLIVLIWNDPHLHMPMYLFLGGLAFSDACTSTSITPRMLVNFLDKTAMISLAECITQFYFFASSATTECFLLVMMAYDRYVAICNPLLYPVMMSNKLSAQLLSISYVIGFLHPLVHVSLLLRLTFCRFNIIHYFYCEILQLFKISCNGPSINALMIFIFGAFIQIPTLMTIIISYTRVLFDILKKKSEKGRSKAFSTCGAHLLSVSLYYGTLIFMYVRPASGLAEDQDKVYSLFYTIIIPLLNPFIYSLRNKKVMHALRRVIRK
The following applies: FIG. 3, Example 3, SEQ ID NO: 32, stable HEK293T. The protocol: as §1

In another assay the target is T3, human receptor OR2L13 (Homo sapiens, UniProt Q8N349).
T3 construct: The receptors were tagged with a FLAG®-Rho tag combination; expressed in transfected cells
T3 sequence (Q8N349 1-312): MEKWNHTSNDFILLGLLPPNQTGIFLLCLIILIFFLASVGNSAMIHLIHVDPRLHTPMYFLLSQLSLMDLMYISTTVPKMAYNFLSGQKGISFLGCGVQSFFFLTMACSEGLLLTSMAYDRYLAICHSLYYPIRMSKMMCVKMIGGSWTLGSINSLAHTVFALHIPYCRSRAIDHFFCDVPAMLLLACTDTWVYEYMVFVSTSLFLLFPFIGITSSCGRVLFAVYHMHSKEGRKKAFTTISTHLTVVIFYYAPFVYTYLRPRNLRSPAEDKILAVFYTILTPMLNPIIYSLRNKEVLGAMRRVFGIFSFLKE
The following applies: FIG. 3, Example 3, SEQ ID NO: 26, stable HEK293T. How it is done: as §1

Another assay deals with T4, human receptor OR4C15 (Homo sapiens, UniProt Q8NGM1).
T4 construct: The receptors were tagged with a FLAG®-Rho tag combination; expressed in transfected cells
T4 sequence (Q8NGM1 with tags, fused parts or gaps): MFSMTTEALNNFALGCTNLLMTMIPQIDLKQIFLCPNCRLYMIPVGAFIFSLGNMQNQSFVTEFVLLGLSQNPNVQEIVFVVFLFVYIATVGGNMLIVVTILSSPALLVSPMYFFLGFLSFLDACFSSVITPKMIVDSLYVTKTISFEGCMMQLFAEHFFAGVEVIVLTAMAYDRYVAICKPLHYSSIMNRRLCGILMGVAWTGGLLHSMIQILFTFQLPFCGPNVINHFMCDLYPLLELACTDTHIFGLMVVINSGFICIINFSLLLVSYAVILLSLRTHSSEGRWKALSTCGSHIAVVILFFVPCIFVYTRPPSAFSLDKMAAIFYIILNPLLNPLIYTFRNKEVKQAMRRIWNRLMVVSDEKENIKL
The following applies: FIG. 3, Example 3, SEQ ID NO: 30, stable HEK293T. The protocol: as §1

As for `CSSSC` [DMTS, dimethyl trisulfide], the EC50 was 62 µM at human receptor OR8H3, 27 µM at human receptor OR5AC2, 59 µM at human receptor OR2L13 and 0.8 µM at human receptor OR4C15.
